Measured values as given in US11352391B2, “Compositions for inducing urinary voiding and defecation” (Dignify Therapeutics, LLC, priority 2017, dated 2022).
Where a SMILES comes first, the peptide text is derived from it.

Target: recombinant hNK1R expressed in CHO cells (Homo sapiens, UniProt P25103)
Assay: Intracellular calcium mobilization (FLIPR) in CHO-hNK1 cells
Type: cell-based
Settings: calcium mobilization, CHO-hNK1 cells; read-out: hNK1 EC50
Procedure: CHO-hNK1 and CHO-hNK2 cells were seeded into black walled clear-bottom 384-well plates) at a density of 10,000 and 15,000 cells per well in 50 μL culture media, respectively, and grown overnight at 37° C. in a humidified CO2-incubator. Cells were washed in washing buffer using the EMBLA 384 instrument, leaving 20 μL of buffer per well after the final aspiration. Cells were then incubated at 37° C. with the cytoplasmic Ca2+ indicator Fluo-4 AM (final concentration 1 μM) in assay buffer (20 mM HEPES, 145 mM NaCl, 5 mM KCl, 5.5 mM glucose, 1 mM MgCl2 and 2 mM CaCl2, pH 7.4, 0.05% Pluronic F-127 and 0.1% BSA) containing 2.5 mM probenecid for […] (cell loading). Cells were then washed 3 times in washing buffer (20 mM HEPES, 145 mM NaCl, 5 mM KCl, 5.5 mM glucose, 1 mM MgCl2 and 2 mM CaCl2, pH 7.4 and 2.5 mM probenecid) using the EMBLA 384 instrument, leaving 30 μL of buffer in each well after the last wash. Loaded cell plates were transferred to the FLIPR machine and calcium responses were monitored as described below. A dual read-out FLIPR protocol was used, allowing for characterization of both agonist and antagonist profiles. For quality control, in each compound plate the signal was monitored by evaluating the responses to the reference standards (NKA and Substance P).
Concentration response curves of compounds were run in duplicate on two different occasions from the same stock solutions. Test solutions were prepared from 10 mM stock solutions in DMSO and 1 μL of each solution was stamped into V-bottom assay plates containing 49 μL assay buffer. The final concentration of DMSO was 0.5% in each well.

Chain of recombinant hNK1R expressed in CHO cells (P25103 whole entry): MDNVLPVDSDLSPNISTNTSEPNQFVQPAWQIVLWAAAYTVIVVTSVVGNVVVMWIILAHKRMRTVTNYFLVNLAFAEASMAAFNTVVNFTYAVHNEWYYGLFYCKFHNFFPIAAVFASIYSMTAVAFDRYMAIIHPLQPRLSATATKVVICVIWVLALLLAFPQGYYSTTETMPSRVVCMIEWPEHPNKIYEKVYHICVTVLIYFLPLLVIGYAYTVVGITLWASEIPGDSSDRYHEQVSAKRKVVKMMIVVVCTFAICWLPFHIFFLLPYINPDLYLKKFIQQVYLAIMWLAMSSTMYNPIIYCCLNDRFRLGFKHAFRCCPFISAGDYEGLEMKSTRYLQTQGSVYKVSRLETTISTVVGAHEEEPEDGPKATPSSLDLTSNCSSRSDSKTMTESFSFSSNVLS

## CCCC[C@H](NC(=O)[C@H](CC(C)C)N(C)C(=O)CNC(=O)[C@@H](NC(=O)[C@H](Cc1ccccc1)NC(=O)[C@H](CCCNC(=N)N)NC(=O)[C@@H](N)CC(=O)O)C(C)C)C(N)=O [Compound B, Asp-Arg-Phe-Val-Gly-(NMe-Leu)-Nle-NH2] (HELM PEPTIDE1{D.R.F.V.G.[meL].[Nle].[am]}$$$$V2.0; N-terminus assumed)
  EC50: 5.84 nM
